Our source for the activity, minimal effective concentration and viability values is publication PMC7377239, “Cardiovascular Effects of Polychlorinated Biphenyls and Their Major Metabolites” (Environmental Health Perspectives, 2020).

Where a name gives a salt, the structure may show the parent alone. Read-outs that look alike come from different tables or passages of the source.

Assay [1] deals with HUVECs. In words: Tube formation (tubulogenesis) assay in HUVECs, 18 h. Type of assay: cell-based, human. The note with it: Homo sapiens, HUVEC, 18 h; for activity at 0.1 µM: 0.10 µM. The essentials:
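HUVECs (passage 1–5) seeded on reduced-growth-factor basement membrane and exposed to compounds overnight at 37°C, 5% CO2, in 2× maintenance medium with 12.5 ng/mL VEGF; 0.5% DMSO vehicle. Calcein AM-stained tube networks imaged and analysed; vehicle-normalized readouts fit to four-parameter logistic, POD set at one SD of vehicle means.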

In assay [2] the test system is iCell endothelial cells (human iPSC-derived ECs). Briefly: High-content imaging cytotoxicity in iCell endothelial cells, 24 h. Type of assay: cell-based. The note with it: Homo sapiens, Endothelial cell, 24 hr; for viability at 0.1 µM / activity at 0.1 µM: 0.10 µM. The essentials: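 Readouts were vehicle-normalised and fitted to a four-parameter logistic model. POD was set at one SD beyond 0.5% DMSO control means, and 100 µM was assigned when no response was seen. Cells were monolayers of iCell endothelial cells imaged after 24 h compound exposure using nuclear, mitochondrial and calcein dyes.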

[3] abbreviates: HUVECs, 0.00 µM = 100.00, read-out: huvec.mtl.18hr.
Setting [4] is: HUVECs, 0.00 µM = 100.00, read-out: huvec.tlps.18hr.
Setting [5] is: HUVECs, 0.00 µM = 100.00, read-out: huvec.tta.18hr.
[6] abbreviates: HUVECs, 0.00 µM = 100.00, read-out: huvec.ttl.18hr.
The mark [7] stands for this setting: iPSC-EC, 0.00 µM control = 100.00, read-out: endo.cyto.24hr.
Setting [8] is: iPSC-EC, 0.00 µM control = 100.00, read-out: endo.mito.24hr.
[9] abbreviates: iPSC-EC, 0.00 µM control = 100.00, read-out: endo.mitoint.24hr.
Setting [10] is: iPSC-EC, 0.00 µM control = 100.00, read-out: endo.nma.24hr.
Where [11] appears, read: iPSC-EC, 0.00 µM control = 100.00, read-out: endo.tc.24hrs.
[12] abbreviates: tube formation mtl, read-out: POD huvec.mtl.18hr.
Where [13] appears, read: tube formation tlps, read-out: POD huvec.tlps.18hr.
[14] abbreviates: tube formation tta, read-out: POD huvec.tta.18hr.
Where [15] appears, read: tube formation ttl, read-out: POD huvec.ttl.18hr.
[16] abbreviates: endothelial cells (endo), cyto, read-out: POD endo.cyto.24hr.
Where [17] appears, read: endothelial cells (endo), mito, read-out: POD endo.mito.24hr.
Setting [18] is: endothelial cells (endo), mitoint, read-out: POD endo.mitoint.24hr.
Where [19] appears, read: endothelial cells (endo), nma, read-out: POD endo.nma.24hr.
Where [20] appears, read: endothelial cells (endo), tc, read-out: POD endo.tc.24hr.

In the case of `Clc1ccc(-c2ccccc2)cc1` [PCB3], the activity at 0.01 µM in assay [1] (setting [3]) was determined as 96.2%; in assay [1] (setting [4]), 59.5%; in assay [1] (setting [5]), 68%; in assay [1] (setting [6]), 71.6%; in assay [2] (setting [8]), 101%; in assay [2] (setting [9]), 126%. Further, the activity at 0.01 µM in assay [2] (setting [10]) was 97.7%. The activity at 0.1 µM in assay [1] (setting [3]) worked out at 97.7%; in assay [1] (setting [4]), 91.8%; in assay [1] (setting [5]) it was 96.2%; in assay [1] (setting [6]), 104%; in assay [2] (setting [8]) it was 101%; in assay [2] (setting [9]), 109%. In assay [2] (setting [10]), the activity at 0.1 µM stood at 98%. Further, the activity at 1 µM in assay [1] (setting [3]) turned out to be 87%; in assay [1] (setting [4]), 74.7%; in assay [1] (setting [5]), 76.6%; in assay [1] (setting [6]), 81.5%; in assay [2] (setting [8]) it was 107%; in assay [2] (setting [9]) it was 104%. Moreover, the activity at 1 µM in assay [2] (setting [10]) is 95.8%. In addition, the activity at 10 µM came out at 96.7% in assay [1] (setting [3]); 74.2% in assay [1] (setting [4]); 62% in assay [1] (setting [5]); 66.4% in assay [1] (setting [6]); 105% in assay [2] (setting [8]); 100% in assay [2] (setting [9]). Besides, the activity at 10 µM in assay [2] (setting [10]) was found to be 94.8%. For the same molecule, the activity at 100 µM came to 70.8% in assay [1] (setting [3]); 39.1% in assay [1] (setting [4]); 26% in assay [1] (setting [5]); 28% in assay [1] (setting [6]); 106% in assay [2] (setting [8]); 102% in assay [2] (setting [9]). Moreover, the activity at 100 µM in assay [2] (setting [10]) was found to be 95.7%. For the same molecule, the minimal effective concentration amounted to 25.3 µM in assay [1] (HUVECs, top concentration 100.00 µM, read-out: huvec.mtl.18hr POD); 100 µM in assay [1] (HUVECs, top concentration 100.00 µM, read-out: huvec.tlps.18hr POD); 0.67 µM in assay [1] (HUVECs, top concentration 100.00 µM, read-out: huvec.tta.18hr POD); 0.7 µM in assay [1] (HUVECs, top concentration 100.00 µM, read-out: huvec.ttl.18hr POD); 100 µM in assay [2] (iPSC-EC, top concentration 100.00 µM, read-out: endo.cyto.24hr POD); 100 µM in assay [2] (iPSC-EC, top concentration 100.00 µM, read-out: endo.mito.24hr POD). The minimal effective concentration in assay [2] (iPSC-EC, top concentration 100.00 µM, read-out: endo.mitoint.24hr POD) is 100 µM; in assay [2] (iPSC-EC, top concentration 100.00 µM, read-out: endo.nma.24hr POD) it was 100 µM; in assay [2] (iPSC-EC, top concentration 100.00 µM, read-out: endo.tc.24hrs POD), 100 µM. Moreover, the viability at 0.01 µM in assay [2] (setting [7]) and in assay [2] (setting [11]) was 101% throughout. In addition, the viability at 0.1 µM in assay [2] (setting [7]) and in assay [2] (setting [11]) was 100% each time. In addition, the viability at 1 µM in assay [2] (setting [7]) and in assay [2] (setting [11]) was 107% each time. Besides, the viability at 10 µM in assay [2] (setting [7]) and in assay [2] (setting [11]) was 106% each time. Moreover, the viability at 100 µM in assay [2] (setting [7]) and in assay [2] (setting [11]) was 105% in each case.
On to `O=S(=O)(O)Oc1ccc(-c2ccc(Cl)cc2)cc1` [4'-PCB 3 sulfate], for which the minimal effective concentration was 11.2 µM in assay [1] (setting [12]); 100 µM in assay [1] (setting [13]); 25.4 µM in assay [1] (setting [14]); 100 µM in assay [1] (setting [15]); 100 µM in assay [2] (setting [16]); 100 µM in assay [2] (setting [17]). Moreover, the minimal effective concentration in assay [2] (setting [18]), in assay [2] (setting [19]) and in assay [2] (setting [20]) was 100 µM throughout.
On to `Clc1ccc(Cl)c(-c2c(Cl)ccc(Cl)c2Cl)c1` [PCB 95, 2,2′,3,5′,6-pentachlorobiphenyl], for which the minimal effective concentration in assay [1] (setting [12]) was 8.29 µM; in assay [1] (setting [13]), 100 µM; in assay [1] (setting [14]) it was 100 µM; in assay [1] (setting [15]) it was 100 µM; in assay [2] (setting [16]), 100 µM; in assay [2] (setting [17]) it was 100 µM. Moreover, the minimal effective concentration in assay [2] (setting [18]), in assay [2] (setting [19]) and in assay [2] (setting [20]) was 100 µM in each case.
